Reference: patent US12016864B2, “LOX enzyme inhibiting methods and compositions” (ANOVIA BIOSCIENCES, INC., priority 2021, dated 2024)

Target: T1, Bovine lysyl oxidase (LOX) (Bos taurus, UniProt P33072)
T1 construct: from tissue; host or cells: adult bovine tendon
T1 sequence (P33072 170-418): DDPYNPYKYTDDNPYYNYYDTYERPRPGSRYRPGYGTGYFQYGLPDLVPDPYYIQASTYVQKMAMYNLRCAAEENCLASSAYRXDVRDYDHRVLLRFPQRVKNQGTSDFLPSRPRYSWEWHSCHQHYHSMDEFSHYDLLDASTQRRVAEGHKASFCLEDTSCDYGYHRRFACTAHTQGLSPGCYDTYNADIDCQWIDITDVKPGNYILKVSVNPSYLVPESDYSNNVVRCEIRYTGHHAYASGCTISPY
Assay: LOX inhibition assay, fluorometric (cadaverine / HRP / Amplex Red)
Format: biochemical
Details: LOX extracted from bovine tendon; 30 min preincubation at 37° C.; 5 mM cadaverine; read-out: Activity Range LOX
Method: The ability of compounds to inhibit prototypic LOX was determined using a fluorometric assay. This assay measures the activity of lysyl oxidases by coupling the reaction with horseradish peroxidase-catalyzed […]. The activity assay protocol uses cadaverine as substrate that releases hydrogen peroxide upon transformation by prototypic LOX enzyme present in the sample. Hydrogen peroxide was in turn detected using a red fluorescence substrate for HRP-coupled reactions (Amplex Red Enzyme Assays, Thermo Scientific Fisher). This lead to an increase in fluorescence that can be easily detected at Ex/Em=540/590 nm in a fluorescence microplate
Bovine lysyl oxidase (LOX) was extracted by adapting the methodology from [Kagan et al. 1979 and Borel et al. 2001.] from bovine tendon: Frozen adult bovine tendon was placed in room temperature water to defrost, and then membranes were removed and the remaining tissue cut into 1 cm pieces. The material was first passed through a course mesh meat grinder, and this mince was passed through a fine mesh grinder. The mince was homogenized in 10 v/w of buffer (16 mM sodium phosphate buffer pH 7.8, 400 mM NaCl) using a Waring blender. The homogenate was centrifuged at 15,000×g for 15 min at 4° C. After centrifugation, the supernatant was discarded and the pellets resuspended in 10 volumes of the same buffer. The mixture was blended again and centrifuged with the same settings. This time the pellets were blended in 3 volumes of extraction buffer (16 mM sodium phosphate buffer pH 7.8) and left to incubate at 4° C. for 2 h. After this time, the slurry was centrifuged with the same settings as described above. The supernatant was used in an ultrafiltration step to remove large proteins by size exclusion through a 30 kDalton filter (EMD Millipore). The filtrate was mixed with DEAE Sephadex (GE Healthcare), or passed over a MonoQ FPLC column. After two washes, one in 16 mM sodium phosphate buffer pH 7.8, 380 mM NaCl, and another in 16 mM sodium phosphate buffer pH 7.8, the proteins were eluted with 16 mM sodium phosphate pH 7.8, 10 μM CuSO4, and 4 M urea. Fractions containing Lox activity were collected and stored frozen at −70° C.
Final concentration in the LOX assay is shown in Table 6 below and performed in a total volume of […].
7 μl of freshly prepared reaction buffer were delivered to reaction wells. Compounds were resuspended in 100% DMSO at 10 mM and delivered into buffer using acoustic technology (Echo550; nanoliter range). A 2.85× solution of LOX protein in reaction buffer was prepared (“LOX solution”) and 7 μl of LOX solution was added into the reaction wells. Buffer only was added to column 1 for no protein control. Reactions were incubated for 30 minutes at 37° C. A 3.33× mixture of cadaverine, Amplex Red, and HRP (“Substrate/Detection Mix) was prepared and subsequently 6 μL of the mixture was added to each reaction well. Progress of reactions was monitored for 120 minutes at 37° C. using Clariostar plate reader (ex530-12, ems 600-40). For all activity assays, pan-LOX inhibitor CCT365623 (Tang et al, 2017) and LOXL2/LOXL3 inhibitor PAT-1251 (PharmaKea) were included as standards.
The slope of the linear portion of the progress curve was calculated using Clariostar software. Typical analysis interval was between 20-50 min, but varied between experiments. The background subtracted signals (No protein wells were considered as background) were converted to % activity relative to DMSO controls. Data was analyzed using GraphPad Prism 4 with “sigmoidal dose-response (variable slope)”; 4 parameters with Hill Slope. Constraints: Bottom=Constant equal to 0. Top=Must be less than 120.

Row | SMILES | IC50 [nM]
1 | NCc1ccnc(S(=O)(=O)C[C@@H]2C[C@H](c3ccccc3)CN2S(=O)(=O)N2CCOCC2)c1 (racemic) [Example 195, Cis-(2-(((1-(Morpholinosulfonyl)-4-phenylpyrrolidin-2-yl)methyl)sulfonyl)pyridin-4-yl)methanamine 2,2,2-trifluoroacetate] | 1000 to 30000
2 | NCc1ccnc(S(=O)(=O)C[C@@H]2C[C@H](c3ccccc3)CN2S(=O)(=O)N2CCS(=O)(=O)CC2)c1 (racemic) [Example 196, cis-4-((2-(((4-(Aminomethyl)pyridin-2-yl)sulfonyl)methyl)-4-phenylpyrrolidin-1-yl)sulfonyl)thiomorpholine 1,1-dioxide 2,2,2-trifluoroacetate] | 1000 to 30000
3 | NCc1ccnc(S(=O)(=O)C[C@H]2C[C@@H](c3ccccc3)CN2S(=O)(=O)N2CCOCC2)c1 (single isomer, unassigned) [Example 195A] | 1000 to 30000
4 | NCc1ccnc(S(=O)(=O)C[C@@H]2C[C@H](c3ccccc3)CN2S(=O)(=O)N2CCOCC2)c1 (single isomer, unassigned) [Example 195B] | 1000 to 30000

Next, values leading:

Row | IC50 [nM] | SMILES
5 | 500 to 1000 | NCc1ccnc(S(=O)(=O)C[C@@H]2C[C@H](c3ccccc3)CN2S(=O)(=O)N2CCS(=O)(=O)CC2)c1 [Example 196A, 4-(((2S,4R)-2-(((4-(aminomethyl)pyridin-2-yl)sulfonyl)methyl)-4-phenylpyrrolidin-1-yl)sulfonyl)thiomorpholine 1,1-dioxide 2,2,2-trifluoroacetate]
6 | 500 to 1000 | NCc1ccnc(S(=O)(=O)C[C@H]2C[C@@H](c3ccccc3)CN2S(=O)(=O)N2CCS(=O)(=O)CC2)c1 [Example 196B, 4-(((2R,4S)-2-(((4-(aminomethyl)pyridin-2-yl)sulfonyl)methyl)-4-phenylpyrrolidin-1-yl)sulfonyl)thiomorpholine 1,1-dioxide 2,2,2-trifluoroacetate]
